Source: patent US9868763B2, “Modulators of protease activated receptors” (The University of Queensland, priority 2011, dated 2018)
“Also recorded” adds a separate entry of the source. Like-named read-outs stand apart in the source and are kept apart here.

How the values were obtained:
MIN6 beta cells = assay: Glucose-stimulated insulin secretion (GSIS); type: cell-based, mouse; details: 52 as pre-treatment before 2f-LIGRLO-NH2
Experimental: Rat pancreas and mouse MIN6 beta cells were cultured in DMEM (25 mM glucose) supplemented with 15% fetal calf serum, 10 U/mL penicillin, 10 U/mL streptomycin, 2 mM L-glutamine and […] 2-mercaptoethanol. MIN6 beta cells were passaged and harvested using non-enzymatic cell dissociation solution (Sigma-Aldrich). Glucose-stimulated insulin secretion (GSIS) was performed as described next. MIN6 beta cells were seeded at 0.8×106 mL in a 96-well plate and cultured for 48 h. Cells were washed twice with glucose-free Krebs buffer (NaCl 119 mM, KCl 4.74 mM, CaCl2 2.54 mM, MgCl2 1.19 mM, KH2PO4 1.19 mM, NaHCO3 25 mM, HEPES (pH 7.4) 10 mM and 0.05% BSA). Cells were pre-treated with compound 52 for 30 min with Krebs buffer supplemented with 2.5 mM glucose. After incubation, cells were washed twice with glucose-free Krebs buffer. Glucose (2.5 mM and 25 mM) and compounds were added at specified concentration and incubated for 1 h. Supernatants were collected and insulin concentrations were determined by ELISA (Abeam).

PAR2 [1] = target: T1, PAR2 (Homo sapiens, UniProt P55085); assay: PAR2 agonist inhibition (antagonism): intracellular Ca2+ release in HT29 cells; type: cell-based; design: endogenous in cells; host or cells: HT29 (human colorectal adenocarcinoma); details: other ligands; inhibiting Ca2+ release in HT29 cells; 30 min pre-incubation, agonist at EC80
T1 sequence (P55085 26-397): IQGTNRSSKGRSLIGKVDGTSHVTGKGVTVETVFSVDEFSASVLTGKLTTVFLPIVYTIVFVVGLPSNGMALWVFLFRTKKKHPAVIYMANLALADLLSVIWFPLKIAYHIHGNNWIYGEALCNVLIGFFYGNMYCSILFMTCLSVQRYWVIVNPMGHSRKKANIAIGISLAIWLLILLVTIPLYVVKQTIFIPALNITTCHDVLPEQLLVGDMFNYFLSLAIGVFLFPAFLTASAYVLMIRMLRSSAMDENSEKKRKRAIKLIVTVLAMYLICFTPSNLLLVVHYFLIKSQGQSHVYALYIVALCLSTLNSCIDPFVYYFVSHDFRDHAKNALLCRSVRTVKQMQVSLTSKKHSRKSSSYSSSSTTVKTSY
Experimental: Cells are seeded overnight in 96-well black walled, clear bottomed, plate at approximately 2×10^4 to 4×10^5 cells per well. […] The cells are then washed twice with HBSS and transferred to a Polarstar spectrofluorimeter (BMG, Durham N.C.).
The cells are prepared as outlined above then treated with the ‘putative’ antagonist 30 min prior to the addition of either trypsin or a synthetic agonist at a concentration equal to the agonists EC80.
The cells were then treated with 1 μM of the PAR2 agonist 2f-LIGRLO-NH2 (FIG. 2A, n=5) or 100 nM Trypsin (FIG. 2B, n=1). Each data point represents mean±SEM. Net changes in fluorescence were calculated as a percentage relative to the maximum response given 1 μM 2f-LIGRLO-NH2 or 100 nM Trypsin. Changes in fluorescence (% response) were plotted against logarithmic compound concentrations. The half maximal inhibitory concentration (IC50) values were derived from the dose response curve using a nonlinear regression curve in Graphpad Prism v5.

[2] = Pharmacokinetics, four consecutive daily oral doses; type: in vivo, Wistar rat; details: 10 mg/kg/day p.o. for 4 days
Experimental: Male Wistar rats were surgically implanted with a jugular vein catheter. Blood samples (heparinised) were collected from the catheter of an unanaesthetised, unrestrained rat, 5 min prior to PAR2 antagonist 52 administration (10 mg/kg p.o.) and 30 min, 1-6, 8 and 24 h post-administration. Rats not implanted with a catheter were given PAR2 antagonist 52 (10 mg/kg/day p.o.) four days consecutively (n=6). On the fifth day, plasma, cerebrospinal fluid (CSF), paw tissue and intraperitoneal adipose were collected for LCMS analysis.

[3] = system: 2furoyl-LIGRLO-NH2-induced paw oedema; assay: PAR2 agonist-induced paw oedema; type: in vivo, Wistar rat
Experimental: The methods used are based on those previously described (Kelso, E. B., et al. Arthritis Rheum 2007, 56, 765-71; Kelso, E. B., et al. J Pharmacol Exp Ther 2006, 316, 1017-24; and Vergnolle, N. J Immunol 1999, 163, 5064-9). Male Wistar rats (n=3 per group) are used. Briefly, rats are given either 5 or 10 mg/kg of a compound of the present invention (p.o. via gavage in olive oil, approx. 500 μL, weight adjusted). Control animals receive only olive oil (500 μL p.o.). Two hours later, the PAR2 agonist 2-furoyl-LIGRLO (350 μg/paw in saline, 100 μL) is injected into the plantar surface (i.pl.) of the right paw pad using a 30 G needle. The left paw acts as a control, receiving saline only. Paw thickness and width are measured after 30 minutes and hourly using digital calipers (World Precision Instruments, USA) and swelling is calculated in area (mm^2; thickness multiplied by width) and expressed as a percentage change from baseline of each individual paw.
Based on previous methods (Kelso E B et al., J Pharmacol Exp Ther 2006, 316(3):1017-24; Suen J Y et al., Br J Pharmacol 2011, doi: 10.1111/j.1476-5381.2011.01610.x.), PAR2 antagonist 52 (10 mg/kg s.c.; n=4), ENMD-1068 (100 mg/kg s.c.; n=4) or vehicle control (DMSO s.c.; n=2) were administered to male Wistar rats. Baseline paw thickness and width were measured using digital calipers (World Precision Instruments, USA) expressed in area (mm^2; thickness×width). Fifteen minutes later, 2Furoyl-LIGLRO-NH2 (350 μg/paw in 100 μL saline) was injected into of the right hind paw pad (intraplantar, i.pl.). The left hind paw acted as a control, receiving saline only. In a separate experiment, vehicle (500 μL olive oil) versus PAR2 antagonist 52 (10 mg/kg p.o. in 500 μL olive oil) only were administered orally to two groups of rats (4 per group). Two hours later, β-tryptase (human recombinant lung, 20 μg in 100 μL saline) was injected into the right hind paw pad (vehicle in left for control) of all animals in each group. In all experiments, paw swelling was measured and expressed in area (mm^2; thickness×width) and plotted as % change from baseline of each individual paw.

[4] = system: SLIGRL-NH2-induced acute colonic inflammation; assay: PAR2-induced acute colonic inflammation; type: in vivo, Wistar rat; details: 10 mg/kg p.o.
Experimental: A polyethylene catheter (1.7-mm outer diameter) was inserted 8 cm into the colon via the anus, through which SLIGRL-NH2 (1 mg/rat) or saline vehicle (500 l) was administered. Rats remained anesthetized for 10 min and maintained at an angle of 40° to prevent leakage from the anus. Rats were allowed to recover with food and water supplied. All rats were terminated at 10 h after induction and scored appropriately for disease activity index (DAI) and macroscopic disease (see Disease Activity Index below). Colon tissue was taken for wet/dry ratio and MPO assay.
DAI for both acute and chronic models was assessed and scored by an expert blinded to treatments. Scores incorporated mobility, gastrointestinal pathology, discomfort, and generalized sickness behaviour criteria (each scored 0-3). Any animal that reached stage 3 in any criteria was euthanized by CO2 inhalation and recorded as a disease-related mortality. Scores were summed and expressed as total disease score (maximum 12). DAI was measured at endpoint only (10 h) in the acute study and daily in the chronic TNBS study.
Colons were dissected post-mortem and given a macroscopic disease score based on that described previously (Bobin-Dubigeon et al., 2001) with some minor alterations (maximal score 14). The entire colon length was removed between the ileocolic and colorectal junction. Length and maximal distension width were measured. […]

PAR2 [5] = target: T1, PAR2; assay: PAR2-induced intracellular Ca2+ release in human macrophages; type: cell-based; design: endogenous in cells
Excerpt: Peripheral blood mononuclear cells were isolated from buffy coat (Australian Red Cross, Kelvin Grove, QLD) using Ficoll-paque density centrifugation (GE Healthcare Bio-Science, Uppsala, Sweden). CD14^+ monocytes were positively selected using CD14^+ MACS magnetic beads (Miltenyi Biotech, Auburn, Calif., USA). Monocytes were differentiated to HMDM in complete media using M-CSF (PeptroTech Inc, Rocky Hill, N.J., USA). HMDM were supplemented with 50% fresh complete medium containing CSF-1 on Day 5 after seeding and re-plated for use on Day 7.

CC[C@H](C)[C@@H](NC(=O)[C@H](CC1CCCCC1)NC(=O)c1ccno1)C(=O)N1CCC2(C=Cc3ccccc32)CC1 [Compound 52]
glucose-stimulated insulin secretion (MIN6 beta cells): normalised insulin secretion | IC50 (PAR2 [1]): 1000 nM | Cp after fourth dose greater than the single-dose Cp at 24 h [2]: ~30% | concentration at 5 day ([2]; Wistar, rat, cerebrospinal fluid, oral, read-out: concentration in cerebral spinal fluid (none detected, LCMS/MS detection limit)): < 1.8 nM | Kp at 24 h ([2]; Wistar, rat, intraperitoneal adipose / plasma, oral, read-out: intraperitoneal adipose concentration as share of Cp at 24 h): ~0.3 | concentration at 5 day ([2]; Wistar, rat, intraperitoneal adipose, oral, read-out: concentration in intraperitoneal adipose): 150 ± 20 nM | concentration at 24 h ([2]; Wistar, rat, plasma, oral, read-out: plasma concentration Cp at 24 h after the fourth dose): 500 ± 100 nM | paw oedema induced by other PAR2 agonists, e.g. trypsin, SLIGRL-NH2 and GB110 ([3]; recently found): inhibit paw oedema | paw oedema induced by 2furoyl-LIGRLO-NH2 ([3]; s.c., 52 10 mg/kg, ENMD-1068 100 mg/kg, agonist 350 μg/paw): reduced the paw oedema; also recorded: strongly reduce the paw oedema | acute colonic inflammation induced by SLIGRL-NH2 [4]: inhibited | edema, mucin depletion, PAR2 receptor internalization and mastocytosis [4]: markedly reduced | PAR2 antagonist potency relative to ENMD-1068 (PAR2 [5]): 1000 fold
